# Laboratory results from the supplement of paper PMC10307832.
# Columns and labels:
# Experiment in all cases: relative viability (nuclei count vs DMSO), 5 days (fraction); higher = more cells survive
# COR-L 105 = test system: COR-L 105
# Summary of the method: (§1)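 Relative viability equals treated-well nuclei counts divided by vehicle-well nuclei counts. Counts came from 4× images of lung cancer cell lines grown in 1536-well plates for 5 days after pin-tool dosing on the day after seeding. Dosing used one drug alone or a fixed anchor-drug dose plus five library-drug doses (not always all listed) in √10 steps, and values are medians of duplicate plates.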
# EMC-BAC-2 = test system: EMC-BAC-2
# Summary of the method: as §1
# NCI-H727 = test system: NCI-H727
# Summary of the method: as §1
# NCI-H1395 = test system: NCI-H1395
# Summary of the method: as §1
# CAL-12T = test system: CAL-12T
# Summary of the method: as §1
# SK-LU-1 = test system: SK-LU-1
# Summary of the method: as §1
# HCC-366 = test system: HCC-366
# Summary of the method: as §1
# HOP-62 = test system: HOP-62
# Summary of the method: as §1
# NCI-H1437 = test system: NCI-H1437
# Summary of the method: as §1
# NCI-H1755 = test system: NCI-H1755
# Summary of the method: as §1
# HARA = test system: HARA
# Summary of the method: as §1
# A-427 = test system: A-427
# Summary of the method: as §1
# NCI-H1792 = test system: NCI-H1792
# Summary of the method: as §1
# NCI-H2228 = test system: NCI-H2228
# Summary of the method: as §1
# NCI-H2009 = test system: NCI-H2009
# Summary of the method: as §1
# NCI-H1915 = test system: NCI-H1915
# Summary of the method: as §1
# NCI-H23 = test system: NCI-H23
# Summary of the method: as §1
# SW 1573 = test system: SW 1573
# Summary of the method: as §1
# NCI-H460 = test system: NCI-H460
# Summary of the method: as §1
# HCC-827 = test system: HCC-827
# Summary of the method: as §1
structure (smiles),measurement,setting,value
Nc1ccn([C@@H]2O[C@H](CO)[C@@H](O)[C@@H]2O)c(=O)n1 [Cytarabine] + CS(=O)(=O)CCNCc1ccc(-c2ccc3ncnc(Nc4ccc(OCc5cccc(F)c5)c(Cl)c4)c3c2)o1 [Lapatinib] (partner 2 µM),relative viability,COR-L 105; first compound 0.005 µM,0.299
same,relative viability,COR-L 105; first compound 0.01581 µM,0.328
same,relative viability,COR-L 105; first compound 0.05 µM,0.297
same,relative viability,COR-L 105; first compound 0.1581 µM,0.293
same,relative viability,COR-L 105; first compound 0.5 µM,0.252
same,relative viability,EMC-BAC-2; first compound 0.005 µM,0.857
same,relative viability,EMC-BAC-2; first compound 0.01581 µM,0.85
same,relative viability,EMC-BAC-2; first compound 0.05 µM,0.763
same,relative viability,EMC-BAC-2; first compound 0.1581 µM,0.283
same,relative viability,EMC-BAC-2; first compound 0.5 µM,0.287
same,relative viability,NCI-H727; first compound 0.005 µM,0.766
same,relative viability,NCI-H727; first compound 0.01581 µM,0.602
same,relative viability,NCI-H727; first compound 0.05 µM,0.606
same,relative viability,NCI-H727; first compound 0.1581 µM,0.339
same,relative viability,NCI-H727; first compound 0.5 µM,0.28
same,relative viability,NCI-H1395; first compound 0.005 µM,0.935
same,relative viability,NCI-H1395; first compound 0.01581 µM,0.749
same,relative viability,NCI-H1395; first compound 0.05 µM,0.581
same,relative viability,NCI-H1395; first compound 0.1581 µM,0.461
same,relative viability,NCI-H1395; first compound 0.5 µM,0.355
same,relative viability,CAL-12T; first compound 0.005 µM,0.848
same,relative viability,CAL-12T; first compound 0.01581 µM,0.629
same,relative viability,CAL-12T; first compound 0.05 µM,0.542
same,relative viability,CAL-12T; first compound 0.1581 µM,0.388
same,relative viability,CAL-12T; first compound 0.5 µM,0.269
same,relative viability,SK-LU-1; first compound 0.005 µM,0.659
same,relative viability,SK-LU-1; first compound 0.01581 µM,0.744
same,relative viability,SK-LU-1; first compound 0.05 µM,0.697
same,relative viability,SK-LU-1; first compound 0.1581 µM,0.345
same,relative viability,SK-LU-1; first compound 0.5 µM,0.467
same,relative viability,HCC-366; first compound 0.005 µM,1.16
same,relative viability,HCC-366; first compound 0.01581 µM,0.85
same,relative viability,HCC-366; first compound 0.05 µM,1.05
same,relative viability,HCC-366; first compound 0.1581 µM,0.0753
same,relative viability,HCC-366; first compound 0.5 µM,0.0431
same,relative viability,HOP-62; first compound 0.005 µM,0.825
same,relative viability,HOP-62; first compound 0.01581 µM,0.821
same,relative viability,HOP-62; first compound 0.05 µM,0.385
same,relative viability,HOP-62; first compound 0.1581 µM,0.134
same,relative viability,HOP-62; first compound 0.5 µM,0.0735
same,relative viability,NCI-H1437; first compound 0.005 µM,0.548
same,relative viability,NCI-H1437; first compound 0.01581 µM,0.453
same,relative viability,NCI-H1437; first compound 0.05 µM,0.378
same,relative viability,NCI-H1437; first compound 0.1581 µM,0.177
same,relative viability,NCI-H1437; first compound 0.5 µM,0.147
same,relative viability,NCI-H1755; first compound 0.005 µM,0.759
same,relative viability,NCI-H1755; first compound 0.01581 µM,0.973
same,relative viability,NCI-H1755; first compound 0.05 µM,0.8
same,relative viability,NCI-H1755; first compound 0.1581 µM,0.259
same,relative viability,NCI-H1755; first compound 0.5 µM,0.271
same,relative viability,HARA; first compound 0.005 µM,0.692
same,relative viability,HARA; first compound 0.01581 µM,0.51
same,relative viability,HARA; first compound 0.05 µM,0.365
same,relative viability,HARA; first compound 0.1581 µM,0.189
same,relative viability,HARA; first compound 0.5 µM,0.132
same,relative viability,A-427; first compound 0.005 µM,0.93
same,relative viability,A-427; first compound 0.01581 µM,0.565
same,relative viability,A-427; first compound 0.05 µM,0.274
same,relative viability,A-427; first compound 0.1581 µM,0.184
same,relative viability,A-427; first compound 0.5 µM,0.183
same,relative viability,NCI-H1792; first compound 0.005 µM,0.878
same,relative viability,NCI-H1792; first compound 0.01581 µM,0.874
same,relative viability,NCI-H1792; first compound 0.05 µM,0.366
same,relative viability,NCI-H1792; first compound 0.1581 µM,0.548
same,relative viability,NCI-H1792; first compound 0.5 µM,0.47
same,relative viability,NCI-H2228; first compound 0.005 µM,0.632
same,relative viability,NCI-H2228; first compound 0.01581 µM,0.562
same,relative viability,NCI-H2228; first compound 0.05 µM,0.315
same,relative viability,NCI-H2228; first compound 0.1581 µM,0.183
same,relative viability,NCI-H2228; first compound 0.5 µM,0.136
same,relative viability,NCI-H2009; first compound 0.005 µM,0.992
same,relative viability,NCI-H2009; first compound 0.01581 µM,0.878
same,relative viability,NCI-H2009; first compound 0.05 µM,0.444
same,relative viability,NCI-H2009; first compound 0.1581 µM,0.694
same,relative viability,NCI-H2009; first compound 0.5 µM,0.349
same,relative viability,NCI-H1915; first compound 0.005 µM,0.868
same,relative viability,NCI-H1915; first compound 0.01581 µM,0.955
same,relative viability,NCI-H1915; first compound 0.05 µM,0.848
same,relative viability,NCI-H1915; first compound 0.1581 µM,0.393
same,relative viability,NCI-H1915; first compound 0.5 µM,0.257
same,relative viability,NCI-H23; first compound 0.005 µM,0.974
same,relative viability,NCI-H23; first compound 0.01581 µM,0.636
same,relative viability,NCI-H23; first compound 0.05 µM,0.734
same,relative viability,NCI-H23; first compound 0.1581 µM,0.203
same,relative viability,NCI-H23; first compound 0.5 µM,0.165
same,relative viability,SW 1573; first compound 0.005 µM,1.17
same,relative viability,SW 1573; first compound 0.01581 µM,0.879
same,relative viability,SW 1573; first compound 0.05 µM,0.952
same,relative viability,SW 1573; first compound 0.1581 µM,0.606
same,relative viability,SW 1573; first compound 0.5 µM,0.329
same,relative viability,NCI-H460; first compound 0.005 µM,0.333
same,relative viability,NCI-H460; first compound 0.01581 µM,1.1
same,relative viability,NCI-H460; first compound 0.05 µM,0.4
same,relative viability,NCI-H460; first compound 0.1581 µM,0.0338
same,relative viability,NCI-H460; first compound 0.5 µM,0.0305
same,relative viability,HCC-827; first compound 0.005 µM,0.192
same,relative viability,HCC-827; first compound 0.01581 µM,0.16
same,relative viability,HCC-827; first compound 0.05 µM,0.141
same,relative viability,HCC-827; first compound 0.1581 µM,0.136
same,relative viability,HCC-827; first compound 0.5 µM,0.125
